From patent US20090274674A1, “Heterocyclic Oxime Compounds, Process for Their Preparation and Pharmaceutical Compositions Containing Them” (LES LABORATOIRES SERVIER, priority 2005, published 2009)

Tests used:
ob/ob mouse = experiment: Antidiabetic and hypolipaemic effect in the ob/ob mouse; assay type: in vivo; conditions: male ob/ob mouse, 3 mg/kg oral once per day for four days, measured 24 hours after the final administration
Text: Mutations in laboratory animals and also different sensitivities to dietary regimens have allowed the development of animal models having non-insulin-dependent diabetes and hyperlipidaemia associated with obesity and with resistance to insulin. Genetic mice models (ob/ob) (Diabetes, 1982, 31 (1), 1-6) and Zucker (fa/fa) rats have been developed by various laboratories in order to understand the physiopathology of those diseases and test the effectiveness of new antidiabetic compounds (Diabetes, 1983, 32, 830-838).
Antidiabetic and Hypolipaemic Effect in the ob/ob Mouse
The 10-week-old male ob/ob mouse (Harlan) is used for the in vivo tests. The animals are kept in a light-darkness cycle of 12 hours at 25° C. This mouse has a basal hyperglycaemia of 2 g/l. The animals are randomly selected with regard to their glycaemia to form groups of eight. The compounds tested by the oral route are dissolved in a mixture of hydroxyethyl cellulose (HEC 1%) to be administered at 3 mg/kg in a volume of 10 ml/kg once per day for four days. The control group receives the solvents under the same conditions as the treated groups. The activity of the products is evaluated by measuring glycaemia, triglyceridaemia and insulinaemia 24 hours after the final administration and by measuring body weight daily.

SMILES	melting point	reduction in glycaemia compared with the control (ob/ob mouse)	reduction in insulinaemia compared with the control group (ob/ob mouse)	reduction in triglyceridaemia compared with the control group (ob/ob mouse)
CCOC(Cc1ccc(OCCn2ccc3cc(C(=NOC)c4ccccc4)cnc32)cc1)C(=O)OC (stereo not drawn) [Example 11, Methyl 2-ethoxy-3-[4-(2-{5-[(methoxyimino)(phenyl)methyl]-1H-pyrrolo[2,3-b]pyridin-1-yl}ethoxy)phenyl]propanoate]	145 °C			
CON=C(c1ccccc1)c1cnc2c(ccn2CCOc2ccc(CC(OCC(F)(F)F)C(=O)O)cc2)c1 (stereo not drawn) [Example 14, 3-[4-(2-{5-[(Methoxyimino)(phenyl)methyl]-1H-pyrrolo[2,3-b]pyridin-1-yl}ethoxy)phenyl]-2-(2,2,2-trifluoroethoxy)propanoic acid]	182 °C (dec.)			
CO/N=C(/c1ccccc1)c1cnc2c(ccn2CCOc2ccc(CC(OCC(F)(F)F)C(=O)O)cc2)c1Cl (stereo not drawn) [Example 16, 3-[4-(2-{4-Chloro-5-[(Z)-(methoxyimino)(phenyl)methyl]-1H-pyrrolo[2,3-b]pyridin-1-yl}ethoxy)phenyl]-2-(2,2,2-trifluoro-ethoxy)propanoic acid]	186 °C			
CON=C(c1ccccc1)c1ccc2ccn(CCOc3ccc(C[C@H](OCC(F)(F)F)C(=O)O)cc3)c2n1 [Example 32, (2S)-3-[4-(2-{6-[(Methoxyimino) (phenyl)methyl]-1H-pyrrolo[2,3-b]pyridin-1-yl}ethoxy)phenyl]-2-(2,2,2-trifluoroethoxy)propanoic acid]		43%	23%	37%
